# From US20240270733A1, “HYDRATE FORM OF LAZERTINIB MESYLATE, PREPARATION METHOD THEREOF AND USE THEREOF” (HANGZHOU SOLIPHARMA CO., LTD., priority 2021, published 2024)
# Entries after “also recorded” stand apart in the source; their conditions may differ. Counter-ions that a name gives are not always drawn. Like-named read-outs stand apart in the source and are kept apart here.
# What was measured:
# physchem [1] = conditions: thermodynamic from solid
# physchem [2] = conditions: thermodynamic from solid, Instantaneous Solubility
# [3] = Accelerated closed-vial stability study; format: physicochemical; conditions: 40° C., 75% RH
# [4] = 40° C., 75% RH; for Assay (%) / Color / XRPD: open vial
# Description: The samples were placed under accelerated open-vial conditions (40° C., 75% RH, and open vial) to assess the stability of both samples.
# [5] = Variable-temperature XRPD; format: physicochemical; conditions: heated up to 100° C.
# Description: In this application, X-ray powder diffraction (XRPD) data were collected using a BrukerD8 Advance diffractometer; parameters are as follows: Cu radiation; wavelength: 1.54 Å; Current voltage: 40 KV, 40 mA; Scan range: 3˜40° 2θ.
# [6] = pH 1.2
# [7] = cited from earlier work
# [8] = pH 1.2, simulated gastric fluid
# [9] = sealed 5 mL vial in self-sealing bag
smiles,measurement,setting,value
"C=CC(=O)Nc1cc(Nc2nccc(-n3cc(CN(C)C)c(-c4ccccc4)n3)n2)c(OC)cc1N1CCOCC1 [Form A, lazertinib mesylate]",solubility at 4 hrs,physchem [1]; [8],> 60 mg/mL
same,solubility at 12 hrs,physchem [1]; [8],> 60 mg/mL
same,solubility thermodynamic,physchem [1]; [8],> 60 mg/mL
same,solubility at 4 hrs,"physchem [1]; pH 4, aqueous buffer",67.9 mg/mL
same,solubility at 12 hrs,"physchem [1]; pH 4, aqueous buffer",67 mg/mL
same,solubility thermodynamic,"physchem [1]; pH 4, aqueous buffer",> 60 mg/mL
same,solubility at 4 hrs,physchem [1]; water,70.7 mg/mL
same,solubility at 12 hrs,physchem [1]; water,69.4 mg/mL
same,solubility thermodynamic,physchem [1]; water,> 60 mg/mL
same,solubility,physchem [2]; [8],> 80 mg/mL
same,solubility,"physchem [2]; pH 4, aqueous buffer",> 50 mg/mL
same,solubility,physchem [2]; water,> 50 mg/mL
same,remains stable for at least (time),[3]; 5 mL vial packed in a self-sealing bag (sealed),at least 1 month
same,change in assay value,[3]; [9],minimal change; also recorded: no significant changes
same,color before and after storage,[3]; [9],white; also recorded: no significant changes
same,crystal form before and after storage,[3]; [9],remains unchanged; also recorded: no significant changes
same,remains stable for at least (time),[4]; open,at least 21 days
same,Assay (%),[4]; 0 day,98.79%
same,Color,[4]; 0 day,white
same,XRPD,[4]; 0 day,Form A
same,Assay (%),[4]; 21 days,98.44%
same,Color,[4]; 21 days,white
same,XRPD,[4]; 21 days,Form A
same,crystal form on heating (variable-temperature XRPD),[5],remains unchanged
same,Instantaneous Solubility,[6],>50 mg/mL
"C=CC(=O)Nc1cc(Nc2nccc(-n3cc(CN(C)C)c(-c4ccccc4)n3)n2)c(OC)cc1N1CCOCC1 [Form I, lazertinib mono-mesylate, reference compound]",Assay (%),[4]; 0 day,98.73%
same,Color,[4]; 0 day,yellow
same,XRPD,[4]; 0 day,Form I
same,Assay (%),[4]; 21 days,70.35%
same,Color,[4]; 21 days,pink
same,XRPD,[4]; 21 days,Form I
same,change in assay value (in words),"[4]; open, 21 days",significant decrease
same,change in color (in words),"[4]; open, 21 days",from yellow to pink
same,solubility,[7]; pH 1.2,14.9 mg/mL
same,solubility,[7]; pH 4,20.9 mg/mL
